In publication PMC12295306, “Gut Microbial Postbiotics as Potential Therapeutics for Lymphoma: Proteomics Insights of the Synergistic Effects of Nisin and Urolithin B Against Human Lymphoma Cells” (International Journal of Molecular Sciences, 2025):

What was measured:
HKB-11 lymphoma cells [1] = test: Label-free bottom-up LC-MS proteomics, differentially expressed proteins; type: cell-based, human
Experimental: The HKB-11 lymphoma cells were placed in 6-well plates at a density of 3.0 × 10^6 cells/well and incubated overnight at 37 °C in 5% CO2. […] Treatments were performed in triplicate and incubated for 24 h under the same conditions. Following incubation, each flask of cells was subjected to a 0.25% w/v trypsin treatment for 4 min at 37 °C, and the cell culture medium was collected. Additionally, an equal volume of DMEM F-12 medium (containing 10% FBS) was added before mixing with the previously collected media to neutralise the trypsin. The cells were spun in a centrifuge at 500× g for 5 min at RT. The cell pellets were washed twice with ice-cold PBS and spun again at 500× g for 5 min. These cell pellets were then suspended in a lysis buffer that included 1 μL of universal nuclease (Easypep Mini Kit) (Thermo Fisher Scientific, Sydney, NSW, Australia) and supplemented with Halt™ Protease and Phosphatase Inhibitor Cocktail in a 1:100 ratio (Thermo Fisher Scientific, Sydney, NSW, Australia). The cells were gently pipetted 10–15 times to reduce the sample’s viscosity and then placed on ice for 20 min. The lysate was centrifuged at 14,000 rpm for 20 min at 4 °C, and the resulting liquid was collected.
The Pierce™ Rapid Gold BCA Protein Assay Kit (#A53226, Thermo Fisher Scientific, Sydney, NSW, Australia) was used to determine the protein concentration of the cell lysate in triplicate, using a bovine serum albumin (BSA) standard, following the manufacturer’s protocol. In brief, 1 μL of each sample replicate was diluted 1:20 in Milli-Q water, along with 20 μL of each standard, and then placed in a 96-well plate with 200 μL of working reagent in each well. Samples were diluted to a concentration within the 20–2000 μg/mL working range. The plate was thoroughly mixed on a plate shaker for 30 s and incubated at RT for 5 min, and then the absorbance was measured within 20 min at 480 nm using a microplate spectrophotometer (BMG CLARIOstar, Melbourne, VIC, Australia). The blank absorbance was subtracted from all other readings of standards and samples, and the sample concentration was determined using the established BSA standard calibration curve. The samples were then stored at −80 °C for further analysis.
The protein samples (100 μg) were subjected to chemical and enzymatic sample processing using the EasyPep™ Mini MS Sample Prep Kit following the manufacturer’s instructions (Thermo Fisher Scientific, Sydney, NSW, Australia) and as reported in the literature. Briefly, the sample volume was adjusted to 100 μL using a lysis buffer in a microcentrifuge tube. Subsequently, the reduction and alkylation solutions (50 μL each) were introduced, gently mixed, and incubated at 95 °C with a heat block for 10 min. The samples were allowed to cool to RT, after which 50 μL of the reconstituted trypsin/lys-C protease mixture was added to each sample and incubated with shaking at 37 °C for 3 h. Following incubation, 50 μL of a digestion stop solution was gently mixed into the samples. Peptide clean-up columns were used to remove both hydrophilic and hydrophobic impurities. The resulting clean peptide samples were dehydrated using a vacuum centrifuge and reconstituted in 100 μL of a 0.1% formic acid solution in water for LC–MS analysis. Subsequently, these samples were carefully transferred to maximum recovery sample vials (Waters Corp., Milford, MA, USA).
Label-free, bottom-up proteomic quantification was performed using a micro high-performance liquid chromatography system (Waters M-Class) coupled with a SCIEX™ TripleTOF® 6600 quadrupole time-of-flight mass spectrometer (SCIEX, Framingham, MA, USA), operated in positive electrospray ionisation mode (ESI+). […]

HKB-11 lymphoma cells [2] = test: Flow cytometry apoptosis profile, Annexin V-CF Blue / 7-AAD; type: cell-based, human; conditions: 24 h
Experimental: The HKB-11 cells were cultured in T75 cell culture flasks with an initial density of 1 × 10^6 cells per 10 mL at 37 °C in the presence of 5% CO2 for 24 h. The following day, the cell culture media was removed from each flask and replaced with fresh FBS-containing media. […] An FBS-containing medium was used as the untreated control. The flasks were then incubated at 37 °C with 5% CO2 for 24 h. Then, the cell culture media from each flask were collected. Subsequently, trypsin (0.25% w/v) was applied to the flasks for 4 min at 37 °C. The trypsin reaction was neutralised with an equal volume of 10% FBS serum-containing media, and the cells were combined with the previously collected media. The cell pellets were obtained by centrifuging at 500× g for 5 min at room temperature (RT). This procedure was repeated by suspending the cell pellets in 1 mL of PBS each time. The collected cell pellets from each treatment were immediately suspended in 500 μL of 1× binding buffer and gently mixed by pipetting. Annexin V-CF Blue (5 μL) and 7-AAD (5 μL) staining solutions were added to 100 μL of the cell suspension. The stained cells were incubated for 15 min in the dark at RT, after which 400 μL of a 1× assay buffer was added to each cell suspension. Subsequently, the cells were examined using a flow cytometer (Novocyte 3000, ACEA Biosciences Inc., San Diego, CA, USA), and data analysis and processing were performed using NovoExpress software (version 1.5.0, ACEA Biosciences Inc., CA, USA). In the initial step, the cells were gated on forward and side scatter modes to exclude cell aggregates and debris near the origin. The cells were then gated on dot plots, where Annexin V-CF in Pacific Blue was plotted against 7-AAD fluorescence in PerCP. Quadrants were positioned relative to the untreated control, indicating live cells ([…] and −7-AAD) appearing in the lower-left quadrant, early apoptotic cells (+Annexin V and −7-AAD) in the lower-right quadrant, late apoptotic cells (+Annexin V and +7-AAD) in the upper-right quadrant, and necrotic cells (−Annexin V and +7-AAD) in the upper-left quadrant. For statistical analyses and visualisation, the percentage data of cells in each quadrant after different treatments (n = 3) were exported to GraphPad Prism software (version 9.0, San Diego, CA, USA).

[3] = HKB-11, UB 300 μM, 24 h, vs untreated control, Q ≤ 0.05
[4] = HKB-11, N 3200 μM, 24 h, vs untreated control, Q ≤ 0.05

With `O=c1oc2cc(O)ccc2c2ccccc12` [UB, Urolithin B] the “Log2FC APOC3 (Apolipoprotein C-III)” value (HKB-11 lymphoma cells [1]; [3]) was 2.04, the “Log2FC C4BPA (C4b-binding protein alpha chain)” value (HKB-11 lymphoma cells [1]; [3]) was 4.39 and the “Log2FC CLEC11A (C-type lectin domain family 11 member A)” value (HKB-11 lymphoma cells [1]; [3]) was 3.06. For the same compound, the “Log2FC COX6C (Cytochrome c oxidase subunit 6C)” value (HKB-11 lymphoma cells [1]; [3]) was 2.07, the “Log2FC COX7C (Cytochrome c oxidase subunit 7C, mitochondrial)” value (HKB-11 lymphoma cells [1]; [3]) was 2.08 and the “Log2FC FGB (Fibrinogen beta chain)” value (HKB-11 lymphoma cells [1]; [3]) was 2.14. The “Log2FC GSN (Gelsolin)” value (HKB-11 lymphoma cells [1]; [3]) was 2.26, the “Log2FC HBD (Haemoglobin subunit delta; Haemoglobin subunit beta)” value (HKB-11 lymphoma cells [1]; [3]) was 5.94 and the “Log2FC HBE1 (Haemoglobin subunit epsilon; gam1; gamma-2)” value (HKB-11 lymphoma cells [1]; [3]) was 5.63. For the same compound, the “Log2FC ITIH2 (Inter-alpha-trypsin inhibitor heavy chain H2)” value (HKB-11 lymphoma cells [1]; [3]) was 2.76, the “Log2FC MAD2L1 (Mitotic spindle assembly checkpoint protein MAD2A)” value (HKB-11 lymphoma cells [1]; [3]) was −1.45 and the “Log2FC MT-CO2 (Cytochrome c oxidase subunit 2)” value (HKB-11 lymphoma cells [1]; [3]) was 2.34. The “Log2FC MT-ND4 (NADH-ubiquinone oxidoreductase chain 4)” value (HKB-11 lymphoma cells [1]; [3]) was 2.24, the “Log2FC NDUFA11 (NADH dehydrogenase [ubiquinone] 1 alpha subcomplex subunit 11)” value (HKB-11 lymphoma cells [1]; [3]) was 2.18 and the “Log2FC PCNA (Proliferating cell nuclear antigen)” value (HKB-11 lymphoma cells [1]; [3]) was −0.63. The “Log2FC PSME3 (Proteasome activator complex subunit 3)” value (HKB-11 lymphoma cells [1]; [3]) was −0.59, the “Log2FC SAMM50 (Sorting and assembly machinery component 50 homolog)” value (HKB-11 lymphoma cells [1]; [3]) was 2.01 and the “Log2FC UBE2E1 (Ubiquitin-conjugating enzyme E2 E1; E2 E3; E2 E2)” value (HKB-11 lymphoma cells [1]; [3]) was −1.69. The “Log2FC UBE2S (Ubiquitin-conjugating enzyme E2 S)” value (HKB-11 lymphoma cells [1]; [3]) was −1.21 and the “Apoptosis induction compared to the untreated control” value (HKB-11 lymphoma cells [2]; HKB-11, 500 µM, p ≤ 0.0001) was “greater apoptotic induction”.

In the case of “Nisin (ITSISLCTPGCKTGALMGCNMKTATCHCSIHVSK; Lantibiotic nisin-A; UniProt P13068 24-57, looked up) [34-amino-acid lantibiotic peptide (bacteriocin) produced by Lactococcus lactis; purchased]”, the “Log2FC CDK4 (Cyclin-dependent kinase 4)” value (HKB-11 lymphoma cells [1]; [4]) was −1.26, the “Log2FC CTNNA1 (Catenin alpha-1)” value (HKB-11 lymphoma cells [1]; [4]) was −0.97 and the “Log2FC HDAC1 (Histone deacetylase 1)” value (HKB-11 lymphoma cells [1]; [4]) was −0.67. The “Log2FC LARP1 (La-related protein 1)” value (HKB-11 lymphoma cells [1]; [4]) was −1.27, the “Log2FC MAPK14 (Mitogen-activated protein kinase 14)” value (HKB-11 lymphoma cells [1]; [4]) was −0.80 and the “Log2FC NUP62 (Nuclear pore glycoprotein p62)” value (HKB-11 lymphoma cells [1]; [4]) was −0.60. For the same compound, the “Log2FC POLR2E (DNA-directed RNA polymerases I, II, and III subunit RPABC1)” value (HKB-11 lymphoma cells [1]; [4]) was −0.62, the “Log2FC POLR2G (DNA-directed RNA Polymerase II subunit RPB7)” value (HKB-11 lymphoma cells [1]; [4]) was −0.63 and the “Log2FC POLR2H (DNA-directed RNA polymerases I, II, and III subunit RPABC3)” value (HKB-11 lymphoma cells [1]; [4]) was −0.59. For the same compound, the “Log2FC PPP1R14B (Protein phosphatase 1 regulatory subunit 14B)” value (HKB-11 lymphoma cells [1]; [4]) was −0.93, the “Log2FC PRC1 (Protein regulator of cytokinesis 1)” value (HKB-11 lymphoma cells [1]; [4]) was −0.72 and the “Log2FC RFC1 (Replication factor C subunit 1)” value (HKB-11 lymphoma cells [1]; [4]) was −0.85. For the same compound, the “Log2FC RFC2 (Replication factor C subunit 2)” value (HKB-11 lymphoma cells [1]; [4]) was −0.59, the “Log2FC SRPK2 (SRSF protein kinase 2)” value (HKB-11 lymphoma cells [1]; [4]) was −0.70 and the “Log2FC TYMS (Thymidylate synthase)” value (HKB-11 lymphoma cells [1]; [4]) was −1.54. The “Log2FC PCNA” value (HKB-11 lymphoma cells [1]; HKB-11, N treatment (3200 µM), 24 h, vs untreated control) was −0.63, the “Log2FC PLPBP (Pyridoxal phosphate homeostasis protein)” value (HKB-11 lymphoma cells [1]; HKB-11, Nisin_3.2 / Control, Qvalue 0.00903294) was 0.58 and the “Log2FC THOC3 (THO complex subunit 3)” value (HKB-11 lymphoma cells [1]; HKB-11, Nisin_3.2 / Control, Qvalue 0.0139626) was -0.58. For the same compound, the “Log2FC MAZ (Myc-associated zinc finger protein)” value (HKB-11 lymphoma cells [1]; HKB-11, Nisin_3.2 / Control, Qvalue 0.0377318) was -0.58, the “Log2FC TXNDC9 (Thioredoxin domain-containing protein 9)” value (HKB-11 lymphoma cells [1]; HKB-11, Nisin_3.2 / Control, Qvalue 0.0383948) was -0.58 and the Apoptosis induction (HKB-11 lymphoma cells [2]; HKB-11, 3200 µM, p ≤ 0.0001, compared with 8000 μM) was “induced apoptosis with greater potency”. The “Cell death relative to untreated controls” value (HKB-11 lymphoma cells [2]; HKB-11, 8000 μM, p ≤ 0.01, apoptotic and necrotic populations elevated) was “significantly increased cell death”.
